Test results reported in PubChem BioAssay AID248 (DTP/NCI, 2004).
Values joined by “and” are separate entries in the source; they are usually repeats but may differ in a detail not shown here. Equal values may be shown once. Toxic doses and inconclusive results are not listed. Rule as the data show it: active = T/C of 150% or more; inactive = T/C below 125%. Peptide text beside a SMILES is read from it.

System: L1210 leukemia ip in BDF1 mice, survival T/C
Test: NCI In Vivo Anticancer Drug Screen. Data for tumor model L1210 Leukemia (intraperitoneal) in B6D2F1 (BDF1) mice
Details: endpoint: mean survival time, higher = longer survival
In short: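 Each compound was tested against a transplantable tumor grown in mice. The endpoint was survival, with treated animals benchmarked against vehicle controls as a simple ratio.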

[1] = dose: 100.0 mg/kg/injection, schedule: Q04DX003 (ip), vehicle: saline
[2] = dose: 100.0 mg/kg/injection, schedule: Q01DX001 (ip), vehicle: carboxymethylcellulose (CMC)
[3] = dose: 200.0 mg/kg/injection, schedule: Q01DX001 (ip), vehicle: carboxymethylcellulose (CMC)
[4] = dose: 400.0 mg/kg/injection, schedule: Q01DX001 (ip), vehicle: carboxymethylcellulose (CMC)
[5] = dose: 100.0 mg/kg/injection, schedule: Q01DX001 (ip), vehicle: saline
[6] = dose: 200.0 mg/kg/injection, schedule: Q01DX001 (ip), vehicle: saline
[7] = dose: 400.0 mg/kg/injection, schedule: Q01DX001 (ip), vehicle: saline
[8] = dose: 100.0 mg/kg/injection, schedule: Q04DX003 (ip), vehicle: saline with Tween-80
[9] = dose: 200.0 mg/kg/injection, schedule: Q04DX003 (ip), vehicle: saline with Tween-80
[10] = dose: 400.0 mg/kg/injection, schedule: Q04DX003 (ip), vehicle: saline with Tween-80
[11] = dose: 75.0 mg/kg/injection, schedule: Q01DX001 (ip), vehicle: saline
[12] = dose: 150.0 mg/kg/injection, schedule: Q01DX001 (ip), vehicle: saline
[13] = dose: 300.0 mg/kg/injection, schedule: Q01DX001 (ip), vehicle: saline

Measured: T/C

O=C(NNC(=O)c1cccc2ccccc12)c1cc(Br)ccc1Br
inactive: [1] 97 % of control | dose: 200.0 mg/kg/injection, schedule: Q04DX003 (ip), vehicle: saline 87 % of control | dose: 400.0 mg/kg/injection, schedule: Q04DX003 (ip), vehicle: saline 100 % of control

CCCc1c(Cl)nc(Cl)nc1Cl
inactive: dose: 37.5 mg/kg/injection, schedule: Q01DX009 (ip), vehicle: acetone 111 % of control | dose: 66.0 mg/kg/injection, schedule: Q04DX003 (ip), vehicle: saline 104 % of control and 105 % of control | [2] 100 % of control | [1] 100 % of control and 104 % of control | dose: 150.0 mg/kg/injection, schedule: Q04DX003 (ip), vehicle: saline 106 % of control and 107 % of control | [3] 108 % of control | [4] 96 % of control

Cc1cc(Cl)c(Cl)cc1NC(=O)c1cccc([N+](=O)[O-])c1
inactive: dose: 100.0 mg/kg/injection, schedule: Q01DX009 (ip), vehicle: Klucel (hydroxypropylcellulose) (HPC) 93 % of control | dose: 200.0 mg/kg/injection, schedule: Q01DX009 (ip), vehicle: Klucel (hydroxypropylcellulose) (HPC) 96 % of control | dose: 400.0 mg/kg/injection, schedule: Q01DX009 (ip), vehicle: Klucel (hydroxypropylcellulose) (HPC) 100 % of control

NCCCCC(N)C(=O)NC(CCCN=C(N)N)C(=O)O (stereo not drawn) (H-Lys-Arg-OH; configuration not given here)
inactive: dose: 50.0 mg/kg/injection, schedule: Q04DX003 (ip), vehicle: water 117 % of control | dose: 100.0 mg/kg/injection, schedule: Q01DX009 (ip), vehicle: water 108 % of control | dose: 100.0 mg/kg/injection, schedule: Q04DX003 (ip), vehicle: water 121 % of control | dose: 200.0 mg/kg/injection, schedule: Q01DX009 (ip), vehicle: water 97 % of control | dose: 200.0 mg/kg/injection, schedule: Q04DX003 (ip), vehicle: water 111 % of control | dose: 400.0 mg/kg/injection, schedule: Q04DX003 (ip), vehicle: water 115 % of control

C=C[CH2][Sn]([Br])([c]1ccccc1)[c]1ccccc1
inactive: dose: 1.56 mg/kg/injection, schedule: Q01DX009 (ip), vehicle: saline with Tween-80 89 % of control | dose: 3.13 mg/kg/injection, schedule: Q01DX009 (ip), vehicle: saline with Tween-80 92 % of control

CSC1SCCCS1
inactive: dose: 12.5 mg/kg/injection, schedule: Q04DX002 (ip), vehicle: saline with Tween-80 92 % of control | dose: 25.0 mg/kg/injection, schedule: Q04DX002 (ip), vehicle: saline with Tween-80 98 % of control | dose: 50.0 mg/kg/injection, schedule: Q04DX002 (ip), vehicle: saline with Tween-80 88 % of control

CCOP(=S)(Nc1cccc(C(F)(F)F)c1)OCC
inactive: [5] 102 % of control | [6] 100 % of control | [7] 96 % of control

CCOC(CN=Cc1cccc2ccccc12)OCC
inactive: [8] 95 % of control | [9] 93 % of control | [10] 95 % of control

ClC1=C(Cl)C(Cl)(Cl)C(Cl)=C1Cl
inactive: dose: 0.25 mg/kg/injection, schedule: Q04DX002 (ip), vehicle: Klucel (hydroxypropylcellulose) (HPC) 103 % of control | dose: 0.5 mg/kg/injection, schedule: Q04DX002 (ip), vehicle: Klucel (hydroxypropylcellulose) (HPC) 107 % of control | dose: 1.0 mg/kg/injection, schedule: Q04DX002 (ip), vehicle: Klucel (hydroxypropylcellulose) (HPC) 88 % of control

COc1cccc(C=Nc2ccc(N(C)C)cc2)c1O.COc1cccc(C=Nc2ccc(N(C)C)cc2)c1O.[Co]
inactive: dose: 50.0 mg/kg/injection, schedule: Q04DX003 (ip), vehicle: saline with Tween-80 88 % of control | [8] 88 % of control | [9] 98 % of control

O=c1[nH]cnc2c1ncn2C1SC(CO)C(O)C1O (stereo unspecified)
inactive: dose: 100.0 mg/kg/injection, schedule: Q01DX005 (ip), vehicle: saline 103 % of control | dose: 200.0 mg/kg/injection, schedule: Q01DX005 (ip), vehicle: saline 106 % of control

CC(C)=NNC(=O)c1ccc[n+](Cc2ccccc2)c1
inactive: [11] 102 % of control | [12] 98 % of control | [13] 105 % of control

CCCCC(=O)N/N=C/c1ccc(OC)c(O)c1
inactive: [5] 109 % of control | [6] 104 % of control | [7] 106 % of control

CC1CCC=C2C(=O)C3OC3C(C(C)(C)O)C21C (stereo unspecified)
inactive: dose: 100.0 mg/kg/injection, schedule: Q01DX009 (ip), vehicle: acetone 98 % of control | [8] 90 % of control | dose: 200.0 mg/kg/injection, schedule: Q01DX009 (ip), vehicle: acetone 96 % of control | dose: 400.0 mg/kg/injection, schedule: Q01DX009 (ip), vehicle: acetone 100 % of control | [10] 93 % of control

COc1ccc2c(c1)CCC1=C2CCC(C(=O)O)C1(C)C(=O)O (stereo unspecified)
inactive: dose: 100.0 mg/kg/injection, schedule: Q01DX001 (ip), vehicle: Klucel (hydroxypropylcellulose) (HPC) 97 % of control | dose: 200.0 mg/kg/injection, schedule: Q01DX001 (ip), vehicle: Klucel (hydroxypropylcellulose) (HPC) 108 % of control | dose: 400.0 mg/kg/injection, schedule: Q01DX001 (ip), vehicle: Klucel (hydroxypropylcellulose) (HPC) 92 % of control

COc1cc2cc3c4cc(OC)c(OC)cc4cc[n+]3cc2cc1OC
inactive: dose: 10.0 mg/kg/injection, schedule: Q01DX009 (ip), vehicle: saline 92 % of control | dose: 20.0 mg/kg/injection, schedule: Q01DX009 (ip), vehicle: saline 116 % of control | dose: 40.0 mg/kg/injection, schedule: Q01DX009 (ip), vehicle: saline 118 % of control | dose: 80.0 mg/kg/injection, schedule: Q01DX009 (ip), vehicle: saline 110 % of control | dose: 160.0 mg/kg/injection, schedule: Q01DX009 (ip), vehicle: saline 113 % of control | dose: 320.0 mg/kg/injection, schedule: Q01DX009 (ip), vehicle: saline 93 % of control

COc1ccc2c(C)c(Br)sc2c1
inactive: [2] 89 % of control | [3] 94 % of control | [4] 94 % of control

CN(CCC(=O)O)S(=O)(=O)c1ccccc1
inactive: [5] 103 % of control | [6] 97 % of control | [7] 89 % of control

C=COCCC(C(=O)OCC)C(=O)OCC
inactive: dose: 100.0 mg/kg/injection, schedule: Q01DX009 (ip), vehicle: saline 100 % of control | dose: 200.0 mg/kg/injection, schedule: Q01DX009 (ip), vehicle: saline 96 % of control | dose: 400.0 mg/kg/injection, schedule: Q01DX009 (ip), vehicle: saline 100 % of control

COC1(c2ccccc2)OC(C(C)(C)C)=NC1(C)C (stereo unspecified)
inactive: [8] 92 % of control | [9] 108 % of control

COc1ccc(C2NC(=O)CCC2N)cc1OC (stereo unspecified)
inactive: dose: 100.0 mg/kg/injection, schedule: Q01DX001 (ip), vehicle: saline with Tween-80 99 % of control | dose: 200.0 mg/kg/injection, schedule: Q01DX001 (ip), vehicle: saline with Tween-80 101 % of control | dose: 400.0 mg/kg/injection, schedule: Q01DX001 (ip), vehicle: saline with Tween-80 95 % of control

O=C(O)CC1CCC2CC(O)c3cccc1c32 (stereo unspecified)
inactive: dose: 100.0 mg/kg/injection, schedule: Q04DX003 (ip), vehicle: acetone 106 % of control | dose: 200.0 mg/kg/injection, schedule: Q04DX003 (ip), vehicle: acetone 105 % of control | dose: 400.0 mg/kg/injection, schedule: Q04DX003 (ip), vehicle: acetone 105 % of control

CCCCC(C)C1(C)C(=O)NC(=O)NC1=O (stereo unspecified)
inactive: [11] 105 % of control | [12] 103 % of control | [13] 105 % of control

COc1ccc(/C=C\c2nc3ccccc3c(=O)[nH]2)cc1
inactive: [8] 95 % of control | [9] 88 % of control | [10] 95 % of control
